Source: patent publication US4829078A, “3-phenoxy (or phenylthio)--cyclopentanecarbonylamino acid analogues” (Ono Pharmaceutical Co., Ltd., priority 1985, dated 1989)

Assays:
[1] = system: organ slice of cat cerebral cortex; test: inhibition test on cerebral edema using organ slice of cat cerebral cortex (NaHCO3-stimulated swelling); assay type: cell-based; details: Felis catus, 50 min; gray matter slices, 50 minutes at 37° C., pH 7.4, NaHCO3 as stimulating agent of swelling; read-out: Inhibitory activity on cerebral edema (IC50)
Description: The inhibition test on cerebral edema using organ slice of cat cerebral cortex
The test was carried out by the method described in Journal of Medicinal Chemistry, Vol. 25 (No. 5), 567 (1982).
That is, brain was isolated from a cat (weighing 2≈4 kg), slices of about 1 mm in thickness was prepared, the white matter substance was removed, and the gray matter substance (100≈150 mg a test) was used for a sample. The sample was added to the following incubation medium and incubated for 50 minutes at 37° C. After the incubation, the sample was immediately weighed again to determine the swelling weight of the sample. incubation medium (osmotic pressure, 280≈290 mOsm/l)
1. Hepes Buffer (pH 7.4) . . . 2.365 ml
adjusted to pH 7.4 by NaOH
2. test compounds [dissolved in the presence of tris(hydroxymethyl)aminomethane] or water . . . 0.01 ml
3. 0.2M NaHCO3 . . . 0.125 ml (dissolved by Hepes Buffer, giving the final concentration of 10 mM in medium) […]
(C) A percentage of swelling when a slice sample was added to incubation medium comprising Hepes Buffer, the test compounds in various concentrations and NaHCO3. Above-mentioned (A), (B) and (C) were determined. Inhibition percentage of the test compounds was calculated by the following equation: [formula] IC50 value was determined by dose-response curve as a concentration in which inhibition percentage was 50.

[2] = acute toxicity test in mice by intravenous administration; details: mouse, in vivo
Description: For example, in the acute toxicity test in mice by intravenous administration, LD50 value of compounds of example 1 and 1-(c) is the dose of between 200 and 400 mg/kg.

Row | Structure (SMILES) | IC50 [1] | LD50 [2]
1 | C[C@H](NC(=O)[C@H]1CC[C@H](Oc2ccc(C(=O)c3ccccc3)c(Cl)c2Cl)C1)C(=O)O [1-(c), N-{(1S,3S)-3-(2,3-dichloro-4-benzoylphenoxy)cyclopentanecarbonyl}alanine] | 500 nM | 200 to 400 mg/kg
2 | O=C(O)CC[C@H](NC(=O)[C@H]1CC[C@H](Oc2ccc(C(=O)c3ccccc3)c(Cl)c2Cl)C1)C(=O)O [Example 1, N-{(1S,3S)-3-(2,3-dichloro-4-benzoylphenoxy)cyclopentanecarbonyl}glutamic acid] | 3000 nM | 200 to 400 mg/kg
